Data taken from patent EP2951180B1, “2,6,7,8 SUBSTITUTED PURINES AS HDM2 INHIBITORS” (Merck Sharp & Dohme Corp., priority 2013, dated 2014).

Molecular target: T1, HDM2 (Homo sapiens, UniProt Q00987)
T1 construct: Thioredoxin (N); made in house; host or cells: E. coli strain BL21(DE3)Rosetta
Experiment: HDM2 FRET assay (inhibition of binding of FITC labeled p53-pocket peptide to HDM2)
Details: for IC50: 0.5 nM HDM2 (residues 17 to 125), 3nM peptide, two hour incubation at room temperature, read-out: FRET IC50
Procedure, shortened: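 TR-FRET with 0.5 nM His-tagged recombinant HDM2, 3 nM FITC-labelled p53 peptide and 0.25 nM Tb-anti-His antibody in PBS, 0.01% BSA, 0.01% Tween-20, 0.1% DMSO. IC50 from em520/em495 ratio over 10-point dilutions, 4-parameter logistic fit.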

T1 sequence (Q00987 17-125): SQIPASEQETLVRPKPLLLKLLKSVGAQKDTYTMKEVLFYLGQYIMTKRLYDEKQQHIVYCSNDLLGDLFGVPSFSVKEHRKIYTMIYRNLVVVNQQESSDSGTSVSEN

SMILES	IC50 [nM]	inhibition at 1 µM (read-out: % inh. at 1000 nM, at 1000 nM compound) [%]
C[C@@H](Nc1nc(NCCO)nc2nc(N3CCOC[C@H]3c3ccccc3)n(C[C@H]3CC[C@H](C)CC3)c12)C1CCC1 [Example 13.1, 2-((6-(((R)-1-cyclobutylethyl)amino)-7-((trans-4-methylcyclohexyl)methyl)-8-((R)-3-phenylmorpholino)-7H-purin-2-yl)amino)ethanol]	885	–
C[C@@H](Nc1nc(N2CCC[C@H]2C(=O)O)nc2nc(N3CCOC[C@H]3c3ccccc3)n(C[C@H]3CC[C@H](C)CC3)c12)C1CCC1 [Example 13.2, 1-(6-{[(1R)-1-cyclobutylethyl]amino}-7-[(trans-4-methylcyclohexyl)methyl]-8-[(3R)-3-phenylmorpholin-4-yl]-7H-purin-2-yl)-L-proline]	987	–
CNc1nc(N[C@H](C)C2CCC2)c2c(n1)nc(N1CCOC[C@H]1c1ccccc1)n2C[C@H]1CC[C@H](C)CC1 [Example 13.3, N^6-[(1R)-1-cyclobutylethyl]-N^2-methyl-7-[(trans-4-methylcyclohexyl)methyl]-8-[(3R)-3-phenylmorpholin-4-yl]-7H-purine-2,6-diamine]	–	46
C[C@@H](Nc1nc(N2CCC[C@@H]2C(=O)O)nc2nc(N3CCOC[C@H]3c3ccccc3)n(C[C@H]3CC[C@H](C)CC3)c12)C1CCC1 [Example 13.4, 1-(6-{[(1R)-1-cyclobutylethyl]amino}-7-[(trans-4-methylcyclohexyl)methyl]-8-[(3R)-3-phenylmorpholin-4-yl]-7H-purin-2-yl)-D-proline]	96.1	–
C[C@@H](Nc1nc(NC(C)(C)C(=O)O)nc2nc(N3CCOC[C@H]3c3ccccc3)n(C[C@H]3CC[C@H](C)CC3)c12)C1CCC1 [Example 13.5, N-(6-{[(1R)-1-cyclobutylethyl]amino}-7-[(trans-4-methylcyclohexyl)methyl]-8-[(3R)-3-phenylmorpholin-4-yl]-7H-purin-2-yl)-2-methylalanine]	260	–
C[C@@H](Nc1nc(NCC(=O)O)nc2nc(N3CCOC[C@H]3c3ccccc3)n(C[C@H]3CC[C@H](C)CC3)c12)C1CCC1 [Example 13.6, N-(6-{[(1R)-1-cyclobutylethyl]amino}-7-[(trans-4-methylcyclohexyl)methyl]-8-[(3R)-3-phenylmorpholin-4-yl]-7H-purin-2-yl)glycine]	146	–
C[C@@H](Nc1nc(N2CCC[C@]2(C)C(=O)O)nc2nc(N3CCOC[C@H]3c3ccccc3)n(C[C@H]3CC[C@H](C)CC3)c12)C1CCC1 [Example 13.7, 1-(6-{[(1R)-1-cyclobutylethyl]amino}-7-[(trans-4-methylcyclohexyl)methyl]-8-[(3R)-3-phenylmorpholin-4-yl]-7H-purin-2-yl)-2-methyl-D-proline]	224	–
C[C@@H](Nc1nc(N(C)CC(=O)O)nc2nc(N3CCOC[C@H]3c3ccccc3)n(C[C@H]3CC[C@H](C)CC3)c12)C1CCC1 [Example 13.8, N-(6-{[(1R)-1-cyclobutylethyl]amino}-7-[(trans-4-methylcyclohexyl)methyl]-8-[(3R)-3-phenylmorpholin-4-yl]-7H-purin-2-yl)-N-methylglycine]	120	–
C[C@@H](Nc1nc(N2CCC(C(=O)O)C2)nc2nc(N3CCOC[C@H]3c3ccccc3)n(C[C@H]3CC[C@H](C)CC3)c12)C1CCC1 (stereo partly drawn) [Example 13.9, 1-(6-{[(1R)-1-cyclobutylethyl]amino}-7-[(trans-4-methylcyclohexyl)methyl]-8-[(3R)-3-phenylmorpholin-4-yl]-7H-purin-2-yl)pyrrolidine-3-carboxylic acid]	199	–
CSC1(C(=O)O)CCN(c2nc(N[C@H](C)C3CCC3)c3c(n2)nc(N2CCOC[C@H]2c2ccccc2)n3C[C@H]2CC[C@H](C)CC2)C1 (stereo partly drawn) [Example 13.10, 1-(6-{[(1R)-1-cyclobutylethyl]amino}-7-[(trans-4-methylcyclohexyl)methyl]-8-[(3R)-3-phenylmorpholin-4-yl]-7H-purin-2-yl)-3-(methylsulfanyl)pyrrol idine-3-carboxylic acid]	248	–
C[C@@H](Nc1nc(N2CC(C(=O)O)C(C)(C)C2)nc2nc(N3CCOC[C@H]3c3ccccc3)n(C[C@H]3CC[C@H](C)CC3)c12)C1CCC1 (stereo partly drawn) [Example 13.11, 1-(6-{[(1R)-1-cyclobutylethyl]amino}-7-[(trans-4-methylcyclohexyl)methyl]-8-[(3R)-3-phenylmorpholin-4-yl]-7H-purin-2-yl)-4,4-dimethylpyrrolidine-3 - carboxylic acid]	95.9	–
C[C@@H](Nc1nc(S(C)(=O)=O)nc2nc(N3CCOC[C@H]3c3ccccc3)n(C[C@H]3CC[C@H](C)CC3)c12)C1CCC1 [Example 14.1, N-((R)-1-cyclobutylethyl)-7-((trans-4-methylcyclohexyl)methyl)-2-(methylsulfonyl)-8-((R)-3-phenylmorpholino)-7H-purin-6-amine]	23.5	–
CC(C)c1ccnc(-c2nc3nc(S(C)(=O)=O)nc(N[C@H](C)C4CCC4)c3n2C[C@H]2CC[C@H](C)CC2)c1 [Example 14.4, N-[(1R)-1-cyclobutylethyl]-7-[(trans-4-methylcyclohexyl)methyl]-8-[4-(1-methylethyl)pyridin-2-yl]-2-(methylsulfonyl)-7H-purin-6-amine]	72.4	–
CCS(=O)(=O)c1nc(N[C@H](C)C2CCC2)c2c(n1)nc(N1CCOC[C@H]1c1ccccc1)n2C[C@H]1CC[C@H](C)CC1 [Example 14.5, N-[(1R)-1-cyclobutylethyl]-2-(ethylsulfonyl)-7-[(trans-4-methylcyclohexyl)methyl]-8-[(3R)-3-phenylmorpholin-4-yl]-7H-purin-6-amine]	20.1	–
CC(C)S(=O)(=O)c1nc(N[C@H](C)C2CCC2)c2c(n1)nc(N1CCOC[C@H]1c1ccccc1)n2C[C@H]1CC[C@H](C)CC1 [Example 14.6, N-[(1R)-1-cyclobutylethyl]-7-[(trans-4-methylcyclohexyl)methyl]-2-[(1-methylethyl)sulfonyl]-8-[(3R)-3-phenylmorpholin-4-yl]-7H-purin-6-amine]	21.1	–
CC[S+]([O-])c1nc(N[C@H](C)C2CCC2)c2c(n1)nc(N1CCOC[C@H]1c1ccccc1)n2C[C@H]1CC[C@H](C)CC1 (stereo partly drawn) [Example 14.7, N-[(1R)-1-cyclobutylethyl]-2-(ethylsulfinyl)-7-[(trans-4-methylcyclohexyl)methyl]-8-[(3R)-3-phenylmorpholin-4-yl]-7H-purin-6-amine]	12.2	–
CC(C)[S+]([O-])c1nc(N[C@H](C)C2CCC2)c2c(n1)nc(N1CCOC[C@H]1c1ccccc1)n2C[C@H]1CC[C@H](C)CC1 (stereo partly drawn) [Example 14.8, N-[(1R)-1-cyclobutylethyl]-7-[(trans-4-methylcyclohexyl)methyl]-2-[(1-methylethyl)sulfinyl]-8-[(3R)-3-phenylmorpholin-4-yl]-7H-purin-6-amine]	15.5	–
C[C@@H](Nc1nc(S(=O)(=O)CC(F)(F)F)nc2nc(N3CCOC[C@H]3c3ccccc3)n(C[C@H]3CC[C@H](C)CC3)c12)C1CCC1 [Example 14.15, N-[(1R)-1-cyclobutylethyl]-7-[(trans-4-methylcyclohexyl)methyl]-8-[(3R)-3-phenylmorpholin-4-yl]-2-[(2,2,2-trifluoroethyl)sulfonyl]-7H-purin-6-amine]	220	–
C[C@@H](Nc1nc(S(=O)(=O)CCO)nc2nc(N3CCOC[C@H]3c3ccccc3)n(C[C@H]3CC[C@H](C)CC3)c12)C1CCC1 [Example 14.18, 2-[(6-{[(1R)-1-cyclobutylethyl]amino} -7-[(trans-4-methylcyclohexyl)methyl]-8-[(3R)-3-phenylmorpholin-4-yl]-7H-purin-2-yl)sulfonyl]ethanol]	6.94	–
CC(C)c1ccnc(-c2nc3nc(C(=O)O)nc(N[C@H](C)C4CCC4)c3n2C[C@H]2CC[C@H](C)CC2)c1 [Example 15.1, 6-(((R)-1-cyclobutylethyl)amino)-8-(4-isopropylpyridin-2-yl)-7-((trans-4-methylcyclohexyl)methyl)-7H-purine-2-carboxylic acid]	1.3	–
CC(C)c1ccnc(-c2nc3nc(C(=O)O)nc(N(C)[C@H](C)C4CCC4)c3n2C[C@H]2CC[C@H](C)CC2)c1 [Example 15.2, 6-(((R)-1-cyclobutylethyl)(methyl)amino)-8-(4-isopropylpyridin-2-yl)-7-((trans-4-methylcyclohexyl)methyl)-7H-purine-2-carboxylic acid]	10.5	–
CC(C)c1cc(-c2nc3nc(C(=O)O)nc(N[C@H](C)C4CCC4)c3n2C[C@H]2CC[C@H](C)CC2)[nH]c(=O)c1 [Example 15.3, 6-(((R)-1-cyclobutylethyl)amino)-8-(4-isopropyl-6-oxo-1,6-dihydropyridin-2-yl)-7-((trans-4-methylcyclohexyl)methyl)-7H-purine-2-carboxylic acid]	15.5	–
CCOc1cc(C(C)C)cc(-c2nc3nc(C(=O)O)nc(N[C@H](C)C4CCC4)c3n2C[C@H]2CC[C@H](C)CC2)n1 [Example 15.4, 6-(((R)-1-cyclobutylethyl)amino)-8-(6-ethoxy-4-isopropylpyridin-2-yl)-7-((trans-4-methylcyclohexyl)methyl)-7H-purine-2-carboxylic acid]	4.44	–
CC(C)c1cc(F)nc(-c2nc3nc(-c4noc(=O)[nH]4)nc(N[C@H](C)C4CCC4)c3n2C[C@H]2CC[C@H](C)CC2)c1 [Example 15.5, 3-(6-(((R)-1-cyclobutylethyl)amino)-8-(6-fluoro-4-isopropylpyridin-2-yl)-7-((trans-4-methylcyclohexyl)methyl)-7H-purin-2-yl)-1,2,4-oxadiazol-5(2H)-one]	33.5	–
CC(C)c1ccnc(-c2nc3nc(C(=O)O)nc(N[C@H](C)C4CCC4)c3n2C[C@H]2CC[C@H](C)CC2)c1F [Example 15.6, 6-(((R)-1-Cyclobutylethyl)amino)-8-(3-fluoro-4-isopropylpyridin-2-yl)-7-((trans-4-methylcyclohexyl)methyl)-7H-purine-2-carboxylic acid]	6.02	–
